Data as given in patent US12031897B2, “Target-locking single-molecule nanoscopy” (Memorial Sloan Kettering Cancer Center, priority 2019, dated 2024).
Values joined by “and” are separate entries in the source; they are usually repeats but may differ in a detail not shown here. Identical values can stand only once.

Key:
[1] = system: Pou5f1 transcription site (MCP-mNeonGreen nascent RNA); experiment: MCP-mNeonGreen nascent transcription at the endogenous Pou5f1 locus in mESCs (live-cell imaging); type: cell-based, mouse
Protocol: All the mESCs were cultured and maintained in +2i media with appropriate selection drugs on 0.1% gelatin-coated dishes, at 37° C. in a humidified 5% CO2 incubator. +2i media contain D-MEM (Thermo Fisher Scientific 10313021), 15% fetal bovine serum (Gemini Bio 100-500), 0.1 mM β-mercaptoethanol (Thermo Fisher Scientific 21985023), 2 mM L-alanyl-L-glutamine (Thermo Fisher Scientific 35050079), 1×MEM nonessential amino acids (Thermo Fisher Scientific 11140076), 1000 U/mL LIF (Millipore ESG1107), […] (Millipore 361559) and 1 μM PD0325901 (Axon Medichem 1408). OMG and NMG SNAP-Rpb1 cells were cultured with +2i media plus 3 μg/ml α-amanitin.
(§1) Before imaging, cells were seeded onto 8-chamber coverglass (LabTek, 155411) coated with 5 μg/ml laminin (BioLamina LN511), in −2i media (OMG) or +2i media (NMG) and appropriate drugs. For SiR staining, cells were labeled with media containing 0.3 μM SiR-BG for 10 mins, at 37° C., followed by three washes with new media.
Wide-Field Cell Imaging Experiments. Live cell imaging experiments (tdPCP-EGFP and MCP-mNeonGreen tracking). For time-lapse imaging, a z-stack of 11 frames at 1 frame/second was acquired, by stepping the sample along the z-axis using the nanopositioning stage (250 nm steps). The CCD data were analyzed using IDL 6.4 (ITTVIS). Maximum projection images were calculated for each stack, and the resulting 11 sec/frame movie was used to track the intensities of individual tdPCP-EGFP-tagged transcription sites. A particle tracking routine (Crocker and Grier, 1996) was used for finding the positions of the transcription site in each frame and linking them into a 2D trajectory. The intensity trace of tdPCP-EGFP at the transcription site was corrected for photo-bleaching using the time trace of tdPCP-EGFP in a nearby nuclear region. The auto-correlation function was calculated (for the tdPCP-EGFP fluctuation analysis), or the data were imported in Origin 8.5.0 (OriginLab) and the trace fitted to a single-exponential decay (for the transcription inhibition experiments).

[2] = system: H3K27ac at the Pou5f1 locus; experiment: ChIP-qPCR analysis of H3K27ac after A-485 treatment; type: cell-based, mouse; conditions: for H3K27ac characteristic decay time: 1 μM A-485
Protocol: ChIP-qPCR analysis of H3K27ac after A-485 treatment. For H3K27ac and H3 ChIP-qPCR experiments, confluent 10 cm dishes (˜3×10^6 OMG SNAP-Sox2 cells) were treated with 1 μM A-485 (Structural Genomics Consortium) or 0.1% v/v DMSO for the indicated times. Fixation, cell lysis, sonicated chromatin preparation, immunoprecipitation and qPCR analysis were performed as described for OMG SNAP-Rpb1 cells in the previous section, with the exception that 5 μg H3K27ac antibody (Active Motif 39685) or 5 μg H3 antibody (Active Motif 39763) were used for each IP respectively.

[3] = biological target: T1, Brd4 foci at the Pou5f1 locus (Mus musculus, UniProt Q9ESU6); experiment: Brd4 cluster signal at Pou5f1 upon inhibition (live-cell confocal/STED scans); type: cell-based; conditions: Pou5f1
T1 construct: integrating a SNAP-tag at the N-terminus of the endogenous Brd4; endogenous in cells; host or cells: mouse ESCs OMG-1, homozygous SNAP-Brd4 knock-in clone 9 (printed as 'OMG SNAP-Cdk9 clone 9')
Protocol: For real-time confocal and STED imaging, example implementations may program the wave generator to scan 2 μm×2 μm or 1 μm×1 μm xy areas in 0.8 sec or 0.2 sec respectively. 3D scanning was performed (via, e.g., detection system 150) by acquiring 5 xy scans while moving the stage by 0.5 μm in z between scans. TTL pulses corresponding to single-photon events from the APDs, together with the trigger pulses from the wave generator were detected using a field-programmable gate array (FPGA) data acquisition system (National Instruments, PCIe-7852R).
as §1
To generate OMG or NMG SNAP-Brd4 targeted cells, OMG-1 or NMG mESCs (1×106) were transfected with 10 μg SNAP-Brd4 donor vector and 0.6 μg espCas9-gRNA-Brd4 vector. 10 days after transfection, the cells were trypsinized, labeled with SiR-BG and subjected to FACS, generating a first-round SiR-positive pool. This pool was then expanded, stained with SiR-BG and subjected to second FACS round and individual clones were picked and expanded.

[4] = system: Sox2 foci at the Pou5f1 locus; experiment: Sox2 cluster signal at Pou5f1 upon inhibition (live-cell confocal/STED scans); type: cell-based, mouse; conditions: Pou5f1
Description: Contrary to Brd4, Med22 and Cdk9, Sox2 clustering persists through transcription inhibition by either JQ1 or FVP (FIG. 8D). The differential sensitivities between factors and modes of transcription inhibition unveil a hierarchy of molecular transactions that control Pou5f1 transcription: Sox2 binding occurs upstream of Cdk9/Med22/Brd4 recruitment and accumulation of all of 4 regulatory factors occurs upstream of Pol II release into productive elongation. […] For real-time confocal and STED imaging, example implementations may program the wave generator to scan 2 μm×2 μm or 1 μm×1 μm xy areas in 0.8 sec or 0.2 sec respectively. 3D scanning was performed (via, e.g., detection system 150) by acquiring 5 xy scans while moving the stage by 0.5 μm in z between scans. TTL pulses corresponding to single-photon events from the APDs, together with the trigger pulses from the wave generator were detected using a field-programmable gate array (FPGA) data acquisition system (National Instruments, PCIe-7852R). Before imaging, cells were seeded onto 8-chamber coverglass (LabTek, 155411) coated with 5 μg/ml laminin (BioLamina LN511), in -2i media (OMG) or +2i media (NMG) and appropriate drugs. For SiR staining, cells were labeled with media containing 0.3 μM SiR-BG for 10 mins, at 37° C., followed by three washes with new media. Targeted integration of SNAP-tag in the endogenous Sox2, Cdk9, Brd4 and Med22 genes. To generate OMG or NMG SNAP-Sox2 targeted cells, OMG-1 or NMG mESCs (1×106) were transfected with 10 μg SNAP-Sox2 donor vector and 0.6 μg […] vector. 10 days after transfection, the cells were trypsinized, labeled with 0.3 μM SiR-BG for 10 mins, rinsed three times with new media, followed by immediate fluorescence-activated cell sorting (FACS). All the SiR-positive cells were collected, expanded for 2 weeks, trypsinized, labeled with SiR-BG and sorted again. Almost 100% SNAP positive pools were obtained from the second round of sorting and individual clones were picked and expanded. Homozygous clones (dubbed “OMG SNAP-Sox2 clone 8” and NMG SNAP-Sox2 clone 3'' respectively) with both Sox2 alleles correctly targeted with SNAP-tag integrations and that show SiR nuclear staining were selected for all further experiments.

In the case of `CNC(=O)Nc1ccc2c(c1)CC[C@@]21OC(=O)N(CC(=O)N(Cc2ccc(F)cc2)[C@@H](C)C(F)(F)F)C1=O` [A-485], the “time until nascent Pou5f1 transcription shuts down” value ([1]; 1 μM A-485) is reported as no more than 20 min, the “MCP decay time upon p300/CBP HAT inhibition” value ([1]; Pou5f1, mESCs, 1 μM A-485, mean±S.D., n=17) is reported as 635 s and 635 ± 350 s and the transcription shutdown time-scale ([1]; Pou5f1, upon A-485 inhibition) is reported as 10.5 min. The “response of individual Pou5f1 transcription sites at intermediate inhibitor concentration” value ([1]; intermediate [A-485] or [JQ1]) was “all-or-none responses”, the “H3K27ac characteristic decay time” value ([2]; primer pair 4) was 7 ± 2 min and the “H3K27ac characteristic decay time” value ([2]; primer pair 5) was 7 ± 4 min. The “H3K27ac characteristic decay time” value ([2]; primer pair 6) was 5 ± 1 min, the “H3K27ac characteristic decay time” value ([2]; primer pair 7) was 13 ± 4 min and the “H3K27ac loss kinetics” value ([2]; upon A-485 inhibition) was roughly 7 min. For the same compound, the “Brd4 signal exponential fit τ” value ([3]; inhibition with 1 μM A-485 (FIG. 16J legend)) was 8 ± 1 s, the “Brd4 cluster shrinking time” value ([3]; upon A-485 inhibition) was 8 min and the “Sox2 cluster size characteristic decay time” value ([4]; upon A-485 inhibition) was 12.5 min. For the same compound, the “Sox2 signal exponential fit τ” value ([4]; upon adding 1 μM A-485 (FIG. 8I legend)) was 12.5 ± 8.6 s.
